Results reported in PubChem BioAssay AID2060603 (Molecular Pharmacology Branch, DTP, NCI, 2025).

Test system: 422866-222-R5-J1-PDC spheroid viability
Assay: Anticancer human tumor 422866-222-R5-J1-PDC patient-derived pancreatic adenocarcinoma cell line growth inhibition [CLK]
Details: spheroids with HUVEC and MSC; for IC50: curve of first compound; for viability, T/C: stronger effect = lower value
Summary of the method: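 Patient-derived tumor cells grown as complex spheroids with HUVEC endothelial cells and mesenchymal stem cells, treated with drug combinations. Concentrations descend in half-log steps from near clinical Cmax, or from 10 microM if Cmax unknown.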

[1] = second compound 0.0316 µM, first compound 0.0316 µM
[2] = second compound 0.0316 µM, first compound 0.1 µM
[3] = second compound 0.0316 µM, first compound 0.316 µM
[4] = second compound 0.0316 µM, first compound 1 µM
[5] = second compound 0.1 µM, first compound 0.0316 µM
[6] = second compound 0.1 µM, first compound 0.1 µM
[7] = second compound 0.1 µM, first compound 0.316 µM
[8] = second compound 0.1 µM, first compound 1 µM
[9] = second compound 0.316 µM, first compound 0.0316 µM
[10] = second compound 0.316 µM, first compound 0.1 µM
[11] = second compound 0.316 µM, first compound 0.316 µM
[12] = second compound 0.316 µM, first compound 1 µM
[13] = second compound 1 µM, first compound 0.0316 µM
[14] = second compound 1 µM, first compound 0.1 µM
[15] = second compound 1 µM, first compound 0.316 µM
[16] = second compound 1 µM, first compound 1 µM
[17] = second compound 3.16 µM, first compound 0.0316 µM
[18] = second compound 3.16 µM, first compound 0.1 µM
[19] = second compound 3.16 µM, first compound 0.316 µM
[20] = second compound 3.16 µM, first compound 1 µM
[21] = second compound 10 µM, first compound 0.0316 µM
[22] = second compound 10 µM, first compound 0.1 µM
[23] = second compound 10 µM, first compound 0.316 µM
[24] = second compound 10 µM, first compound 1 µM
[25] = second compound 0.0316 µM, first compound 0.00316 µM
[26] = second compound 0.0316 µM, first compound 0.01 µM
[27] = second compound 0.1 µM, first compound 0.00316 µM
[28] = second compound 0.1 µM, first compound 0.01 µM
[29] = second compound 0.316 µM, first compound 0.00316 µM
[30] = second compound 0.316 µM, first compound 0.01 µM
[31] = second compound 1 µM, first compound 0.00316 µM
[32] = second compound 1 µM, first compound 0.01 µM
[33] = second compound 3.16 µM, first compound 0.00316 µM
[34] = second compound 3.16 µM, first compound 0.01 µM
[35] = second compound 10 µM, first compound 0.00316 µM
[36] = second compound 10 µM, first compound 0.01 µM
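Also: spheroids exposed to agents for seven days before readout.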

`CC(Nc1ccc2c(c1)OCCn1cc(N3C(=O)OCC3C(F)F)nc1-2)C(N)=O` (stereo unspecified) + CN1CCN(c2cc(C(=O)Nc3cc4cc(-c5cnn(C)c5)ccc4cn3)ccn2)CC1 was tested, and the IC50 (second compound 0.0316 µM) was 265 nM, the IC50 (second compound 0.1 µM) was 389 nM and the IC50 (second compound 0.316 µM) was 307 nM. For the same compound, the IC50 (second compound 1 µM) was < 31.6 nM, the IC50 (second compound 3.16 µM) was < 31.6 nM and the IC50 (second compound 10 µM) was < 31.6 nM. The viability, T/C [1] was 81.1%, the viability, T/C [2] was 78.1% and the viability, T/C [3] was 44.5%. For the same compound, the viability, T/C [4] was 37.3%, the viability, T/C (second compound 0.0316 µM, first compound 3.16 µM) was 34% and the viability, T/C (second compound 0.0316 µM, first compound 10 µM) was 27%. The viability, T/C [5] was 103%, the viability, T/C [6] was 68.3% and the viability, T/C [7] was 55.3%. It also gave a viability, T/C [8] of 40.5%, a viability, T/C (second compound 0.1 µM, first compound 3.16 µM) of 33.4% and a viability, T/C (second compound 0.1 µM, first compound 10 µM) of 31.8%. It also gave a viability, T/C [9] of 88.7%, a viability, T/C [10] of 63.1% and a viability, T/C [11] of 50%. For the same compound, the viability, T/C [12] was 42.6%, the viability, T/C (second compound 0.316 µM, first compound 3.16 µM) was 36.5% and the viability, T/C (second compound 0.316 µM, first compound 10 µM) was 34.3%. The viability, T/C [13] was 27.5%, the viability, T/C [14] was 29.1% and the viability, T/C [15] was 25.9%. The viability, T/C [16] was 22.4%, the viability, T/C (second compound 1 µM, first compound 3.16 µM) was 21.3% and the viability, T/C (second compound 1 µM, first compound 10 µM) was 18.6%. The viability, T/C [17] was 9.59%, the viability, T/C [18] was 11% and the viability, T/C [19] was 11.1%. For the same compound, the viability, T/C [20] was 10.5%, the viability, T/C (second compound 3.16 µM, first compound 3.16 µM) was 13.8% and the viability, T/C (second compound 3.16 µM, first compound 10 µM) was 12.3%. For the same compound, the viability, T/C [21] was 2.29%, the viability, T/C [22] was 1.76% and the viability, T/C [23] was 2.37%. For the same compound, the viability, T/C [24] was 1.83%, the viability, T/C (second compound 10 µM, first compound 3.16 µM) was 3.35% and the viability, T/C (second compound 10 µM, first compound 10 µM) was 2.02%.
In the case of `CCN1CCN(Cc2ccc(Nc3ncc(F)c(-c4cc(F)c5nc(C)n(C(C)C)c5c4)n3)nc2)CC1` + CN1CCN(c2cc(C(=O)Nc3cc4cc(-c5cnn(C)c5)ccc4cn3)ccn2)CC1, the IC50 (second compound 0.0316 µM) is reported as > 1000 nM, the IC50 (second compound 0.1 µM) is reported as > 1000 nM and the IC50 (second compound 0.316 µM) is reported as > 1000 nM. The IC50 (second compound 1 µM) was < 3.16 nM, the IC50 (second compound 3.16 µM) was < 3.16 nM and the IC50 (second compound 10 µM) was < 3.16 nM. The viability, T/C [25] was 110%, the viability, T/C [26] was 101% and the viability, T/C [1] was 89%. It also gave a viability, T/C [2] of 88.8%, a viability, T/C [3] of 90.8% and a viability, T/C [4] of 110%. The viability, T/C [27] was 122%, the viability, T/C [28] was 113% and the viability, T/C [5] was 93.8%. For the same compound, the viability, T/C [6] was 85.5%, the viability, T/C [7] was 72.5% and the viability, T/C [8] was 107%. For the same compound, the viability, T/C [29] was 103%, the viability, T/C [30] was 84.9% and the viability, T/C [9] was 89%. The viability, T/C [10] was 72.3%, the viability, T/C [11] was 69.4% and the viability, T/C [12] was 84.5%. For the same compound, the viability, T/C [31] was 34.6%, the viability, T/C [32] was 37.7% and the viability, T/C [13] was 34.4%. The viability, T/C [14] was 41.9%, the viability, T/C [15] was 53.5% and the viability, T/C [16] was 49.8%. It also gave a viability, T/C [33] of 8.29%, a viability, T/C [34] of 8.47% and a viability, T/C [17] of 8.82%. It also gave a viability, T/C [18] of 7.58%, a viability, T/C [19] of 9.92% and a viability, T/C [20] of 13.5%. For the same compound, the viability, T/C [35] was 1.95%, the viability, T/C [36] was 2.42% and the viability, T/C [21] was 1.51%. The viability, T/C [22] was 1.89%, the viability, T/C [23] was 2.56% and the viability, T/C [24] was 1.96%.
Work on `COc1c(OCCCN2CCOCC2)ccc2c3n(c(=NC(=O)c4cnc(N)nc4)nc12)CCN3` + CN1CCN(c2cc(C(=O)Nc3cc4cc(-c5cnn(C)c5)ccc4cn3)ccn2)CC1 yielded an IC50 (second compound 0.0316 µM) of 22 nM, an IC50 (second compound 0.1 µM) of 26.3 nM and an IC50 (second compound 0.316 µM) of 22.6 nM. For the same compound, the IC50 (second compound 1 µM) was < 3.16 nM, the IC50 (second compound 3.16 µM) was < 3.16 nM and the IC50 (second compound 10 µM) was < 3.16 nM. It also gave a viability, T/C [25] of 99.3%, a viability, T/C [26] of 65.7% and a viability, T/C [1] of 43.5%. For the same compound, the viability, T/C [2] was 33.2%, the viability, T/C [3] was 28.9% and the viability, T/C [4] was 33.4%. For the same compound, the viability, T/C [27] was 92.2%, the viability, T/C [28] was 73.2% and the viability, T/C [5] was 46.9%. The viability, T/C [6] was 31.6%, the viability, T/C [7] was 32.2% and the viability, T/C [8] was 34.5%. It also gave a viability, T/C [29] of 92.8%, a viability, T/C [30] of 63% and a viability, T/C [9] of 46.1%. The viability, T/C [10] was 35.5%, the viability, T/C [11] was 30.3% and the viability, T/C [12] was 37.6%. It also gave a viability, T/C [31] of 33.7%, a viability, T/C [32] of 33.4% and a viability, T/C [13] of 21.6%. It also gave a viability, T/C [14] of 25.6%, a viability, T/C [15] of 18% and a viability, T/C [16] of 23.8%. It also gave a viability, T/C [33] of 9.85%, a viability, T/C [34] of 13.6% and a viability, T/C [17] of 11.9%. For the same compound, the viability, T/C [18] was 10.2%, the viability, T/C [19] was 10.4% and the viability, T/C [20] was 9.8%. For the same compound, the viability, T/C [35] was 3.74%, the viability, T/C [36] was 4.24% and the viability, T/C [21] was 3.81%. The viability, T/C [22] was 1.77%, the viability, T/C [23] was 5.18% and the viability, T/C [24] was 3.72%.
